How the values were obtained:
[1] = target: T1, SFRP-1 (Homo sapiens, UniProt Q8N474); assay: Fluorescence polarization binding assay (competitive displacement of a probe compound from SFRP-1); details: fluorescence anisotropy, 45 nM SFRP-1, 20 nM probe;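 note: test compound competes with a fluorescent probe held by SFRP-1, seen as a drop in probe anisotropy after incubation in darkness, with anisotropy as function of rising compound dose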
T1 sequence (Q8N474 32-314): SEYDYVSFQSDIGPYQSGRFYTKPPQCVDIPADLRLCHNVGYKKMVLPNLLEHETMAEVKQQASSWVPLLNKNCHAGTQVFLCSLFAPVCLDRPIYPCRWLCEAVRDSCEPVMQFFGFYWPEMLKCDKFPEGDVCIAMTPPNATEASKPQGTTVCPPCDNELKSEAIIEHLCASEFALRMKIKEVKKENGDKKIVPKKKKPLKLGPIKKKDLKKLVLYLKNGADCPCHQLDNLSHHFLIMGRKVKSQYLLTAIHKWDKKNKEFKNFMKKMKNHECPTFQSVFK

[2] = target: T1, SFRP-1; assay: Cell-based assay for in vitro measurement of SFRP-1/SARP2 antagonist activity (U2OS cells co-transfected with 16x TCF-tk-Luciferase reporter, Wnt and hSFRP-1); details: for fold induction at 10 µM: U2OS, read-out: Fold Induction with SFRP-1, U2OS cells, single dose 10 μM, luciferase reporter, fold induction over SFRP-1 control;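 for all read-outs here: U2OS cells co-transfected with a TCF-tk luciferase reporter, a Wnt vector, hSFRP-1 or empty vector and CMV-βgal, luciferase luminescence read in cell lysates alongside βgal activity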

IC50 [1] | EC50 [2] | fold induction at 10 µM [2] | SMILES
160 nM | 489 nM | 3.8 | O=S(=O)(NCCc1cccnc1)c1cc(S(=O)(=O)c2ccccc2)ccc1C(F)(F)F [Example 677, 5-(phenylsulfonyl)-N-(2-pyridin-3-ylethyl)-2-(trifluoromethyl)benzenesulfonamide]
250 nM | 449 nM | 3.4 | N#CCCNS(=O)(=O)c1cc(S(=O)(=O)c2ccccc2)ccc1C(F)(F)F [Example 679, N-(2-cyanoethyl)-5-(phenylsulfonyl)-2-(trifluoromethyl)benzenesulfonamide]
1100 nM | 4300 nM | 3.4 | O=S(=O)(NCCO)c1cc(S(=O)(=O)c2ccccc2)ccc1C(F)(F)F [Example 681, N-(2-hydroxyethyl)-5-(phenylsulfonyl)-2-(trifluoromethyl)benzenesulfonamide]
250 nM | 765 nM | 1.2 | O=S(=O)(NCC(O)c1ccccc1)c1cc(S(=O)(=O)c2ccccc2)ccc1C(F)(F)F (centres unmarked) [Example 682, N-(2-hydroxy-2-phenylethyl)-5-(phenylsulfonyl)-2-(trifluoromethyl)benzenesulfonamide]
1200 nM | 3100 nM | 3.7 | CC(CO)NS(=O)(=O)c1cc(S(=O)(=O)c2ccccc2)ccc1C(F)(F)F (centres unmarked) [Example 683, N-(2-hydroxy-1-methylethyl)-5-(phenylsulfonyl)-2-(trifluoromethyl)benzenesulfonamide]
500 nM | 1750 nM | 3.5 | C[C@@H](NS(=O)(=O)c1cc(S(=O)(=O)c2ccccc2)ccc1C(F)(F)F)[C@@H](O)c1ccccc1 [Example 686, N-[(1R,2S)-2-hydroxy-1-methyl-2-phenylethyl]-5-(phenylsulfonyl)-2-(trifluoromethyl)benzenesulfonamide]
500 nM | 261 nM | 3.2 | CC(C)(C)OC(=O)N1CCC(NS(=O)(=O)c2cc(S(=O)(=O)c3ccccc3)ccc2C(F)(F)F)CC1 [Example 687, tert-butyl 4-({[5-(phenylsulfonyl)-2-(trifluoromethyl)phenyl]sulfonyl}amino)piperidine-1-carboxylate]
3000 nM | 8400 nM | 2.3 | CC(C)c1ccc(S(=O)(=O)c2ccc(F)cc2)cc1S(=O)(=O)NC1CCN(C(=S)Nc2cccc3ccccc23)CC1 [Example 690, 4-[({5-[(4-fluorophenyl)sulfonyl]-2-isopropylphenyl}sulfonyl)amino]-N-1-naphthylpiperidine-1-carbothioamide]
1000 nM | 8600 nM | 2.8 | CC(C)c1ccc(S(=O)(=O)c2ccc(F)cc2)cc1S(=O)(=O)NC1CCN(C(=S)Nc2ccccc2F)CC1 [Example 691, N-(2-fluorophenyl)-4-[({5-[(4-fluorophenyl)sulfonyl]-2-isopropylphenyl}sulfonyl)amino]piperidine-1-carbothioamide]
1700 nM | 8500 nM | 3 | Cc1ccccc1NC(=S)N1CCC(NS(=O)(=O)c2cc(S(=O)(=O)c3ccc(F)cc3)ccc2C(C)C)CC1 [Example 692, 4-[({5-[(4-fluorophenyl)sulfonyl]-2-isopropylphenyl}sulfonyl)amino]-N-(2-methylphenyl)piperidine-1-carbothioamide]
400 nM | 1080 nM | 3.5 | CCOC(=O)NC(=S)N1CCC(NS(=O)(=O)c2cc(S(=O)(=O)c3ccc(F)cc3)ccc2C(C)C)CC1 [Example 693, ethyl({4-[({5-[(4-fluorophenyl)sulfonyl]-2-isopropylphenyl}sulfonyl)amino]piperidin-1-yl}carbonothioyl)carbamate]
2900 nM | 8700 nM | 2.6 | CCCCNC(=S)N1CCC(NS(=O)(=O)c2cc(S(=O)(=O)c3ccc(F)cc3)ccc2C(C)C)CC1 [Example 694, N-butyl-4-[({5-[(4-fluorophenyl)sulfonyl]-2-isopropylphenyl}sulfonyl)amino]piperidine-1-carbothioamide]
190 nM | 7100 nM | 2.1 | COc1ccc(NC(=S)N2CCC(NS(=O)(=O)c3cc(S(=O)(=O)c4ccc(F)cc4)ccc3C(C)C)CC2)cc1 [Example 695, 4-[({5-[(4-fluorophenyl)sulfonyl]-2-isopropylphenyl}sulfonyl)amino]-N-(4-methoxyphenyl)piperidine-1-carbothioamide]
1100 nM | 14700 nM | 2.2 | COC(=O)c1ccc(NC(=S)N2CCC(NS(=O)(=O)c3cc(S(=O)(=O)c4ccc(F)cc4)ccc3C(C)C)CC2)cc1 [Example 696, methyl 4-[({4-[({5-[(4-fluorophenyl)sulfonyl]-2-isopropylphenyl}sulfonyl)amino]piperidin-1-yl}carbonothioyl)amino]benzoate]
400 nM | 452 nM | 3.7 | COC(=O)CNC(=S)N1CCC(NS(=O)(=O)c2cc(S(=O)(=O)c3ccc(F)cc3)ccc2C(C)C)CC1 [Example 697, methyl N-({4-[({5-[(4-fluorophenyl)sulfonyl]-2-isopropylphenyl}sulfonyl)amino]piperidin-1-yl}carbonothioyl)glycinate]
700 nM | 609 nM | 3 | CC(C)c1ccc(S(=O)(=O)c2ccc(F)cc2)cc1S(=O)(=O)NC1CCN(C(=S)NCCN2CCOCC2)CC1 [Example 698, 4-[({5-[(4-fluorophenyl)sulfonyl]-2-isopropylphenyl}sulfonyl)amino]-N-(2-morpholin-4-ylethyl)piperidine-1-carbothioamide]
1600 nM | 9800 nM | 2.9 | CC(C)c1ccc(S(=O)(=O)c2ccc(F)cc2)cc1S(=O)(=O)NC1CCN(C(=S)Nc2cccc([N+](=O)[O-])c2)CC1 [Example 699, 4-[({5-[(4-fluorophenyl)sulfonyl]-2-isopropylphenyl}sulfonyl)amino]-N-(3-nitrophenyl)piperidine-1-carbothioamide]
500 nM | 397 nM | 1.7 | CC(C)c1ccc(S(=O)(=O)c2ccc(F)cc2)cc1S(=O)(=O)NC1CCN(C(=S)Nc2cccc(C(=O)O)c2)CC1 [Example 700, 3-[({4-[({5-[(4-fluorophenyl)sulfonyl]-2-isopropylphenyl}sulfonyl)amino]piperidin-1-yl}carbonothioyl)amino]benzoic acid]
700 nM | 698 nM | 3 | CC(C)c1ccc(S(=O)(=O)c2ccc(F)cc2)cc1S(=O)(=O)NC1CCN(C(=S)Nc2cccnc2)CC1 [Example 701, 4-[({5-[(4-fluorophenyl)sulfonyl]-2-isopropylphenyl}sulfonyl)amino]-N-pyridin-3-ylpiperidine-1-carbothioamide]
160 nM | 1200 nM | 4.8 | COc1ccccc1C(=O)N1CCC(NS(=O)(=O)c2cc(S(=O)(=O)c3ccccc3)ccc2C(F)(F)F)CC1 [Example 703, N-[1-(2-methoxybenzoyl)piperidin-4-yl]-5-(phenylsulfonyl)-2-(trifluoromethyl)benzenesulfonamide]
200 nM | 787 nM | 3.5 | O=C(c1ccc(F)c(F)c1)N1CCC(NS(=O)(=O)c2cc(S(=O)(=O)c3ccccc3)ccc2C(F)(F)F)CC1 [Example 705, N-[1-(3,4-difluorobenzoyl)piperidin-4-yl]-5-(phenylsulfonyl)-2-(trifluoromethyl)benzenesulfonamide]
180 nM | 503 nM | 3.7 | O=C(c1cc(F)cc(F)c1)N1CCC(NS(=O)(=O)c2cc(S(=O)(=O)c3ccccc3)ccc2C(F)(F)F)CC1 [Example 706, N-[1-(3,5-difluorobenzoyl)piperidin-4-yl]-5-(phenylsulfonyl)-2-(trifluoromethyl)benzenesulfonamide]
200 nM | 187 nM | 4.2 | COc1cccc(OC)c1C(=O)N1CCC(NS(=O)(=O)c2cc(S(=O)(=O)c3ccccc3)ccc2C(F)(F)F)CC1 [Example 707, N-[1-(2,6-dimethoxybenzoyl)piperidin-4-yl]-5-(phenylsulfonyl)-2-(trifluoromethyl)benzenesulfonamide]
300 nM | 1170 nM | 3.7 | COc1ccc(C(=O)N2CCC(NS(=O)(=O)c3cc(S(=O)(=O)c4ccccc4)ccc3C(F)(F)F)CC2)c(OC)c1 [Example 708, N-[1-(2,4-dimethoxybenzoyl)piperidin-4-yl]-5-(phenylsulfonyl)-2-(trifluoromethyl)benzenesulfonamide]
400 nM | 2350 nM | 4.5 | O=C(c1ccc(OC(F)(F)F)cc1)N1CCC(NS(=O)(=O)c2cc(S(=O)(=O)c3ccccc3)ccc2C(F)(F)F)CC1 [Example 709, 5-(phenylsulfonyl)-N-{1-[4-(trifluoromethoxy)benzoyl]piperidin-4-yl}-2-(trifluoromethyl)benzenesulfonamide]
700 nM |  | 3.5 | O=C(c1ccc(C(F)(F)F)cc1F)N1CCC(NS(=O)(=O)c2cc(S(=O)(=O)c3ccccc3)ccc2C(F)(F)F)CC1 [Example 710, N-{1-[2-fluoro-4-(trifluoromethyl)benzoyl]piperidin-4-yl}-5-(phenylsulfonyl)-2-(trifluoromethyl)benzenesulfonamide]

Source: patent publication US20060276464A1, “Diarylsulfone sulfonamides and use thereof” (Wyeth, priority 2005, published 2006)
